One experiment concerns the target T1, APOL1 G2 (Homo sapiens, UniProt O14791, DEL388-389).
T1 construct: expressed in transfected cells; host or cells: HEK293 T-REx clonal line stably expressing GCaMP6f (HEK T-REx/GCaMP6f/APOL1 G2 K6.3), doxycycline induced
T1 sequence (O14791 with tags, fused parts or gaps DEL388-389): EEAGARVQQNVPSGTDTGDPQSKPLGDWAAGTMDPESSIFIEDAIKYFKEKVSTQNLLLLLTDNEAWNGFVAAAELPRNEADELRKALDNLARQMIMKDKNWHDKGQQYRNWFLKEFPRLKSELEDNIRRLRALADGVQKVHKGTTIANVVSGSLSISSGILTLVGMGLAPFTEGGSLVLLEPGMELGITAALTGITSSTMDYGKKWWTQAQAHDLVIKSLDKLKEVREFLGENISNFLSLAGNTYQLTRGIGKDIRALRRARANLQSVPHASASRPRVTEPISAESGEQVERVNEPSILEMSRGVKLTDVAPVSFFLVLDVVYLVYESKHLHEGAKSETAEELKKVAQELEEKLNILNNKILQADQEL
Briefly: APOL1-mediated calcium transport (calcium influx) assay, HEK T-REx/GCaMP6f/APOL1 G2 K6.3 cells, FLIPR TETRA. Format: cell-based. The note with it: prevention of calcium influx; geometric mean of at least 2 assay runs; † = average of a technical replicate from a single assay run. The procedure, abridged: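 A HEK293 T-REx clone stably expressing GCaMP6f had APOL1 G2 induced with doxycycline (20 ng/mL solution added) for 6 h. Cells were then washed into Ca2+-free Tyrode's buffer (pH 7.4) and preincubated with compounds (duplicate 8-point) for 10 min at room temperature. Ca2+ injection to 5 mM final produced FLIPR GCaMP fluorescence, giving AC50 for influx inhibition (geometric mean, ≥2 runs).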

For experiment [1], the system named is HEK293 cells overexpressing APOL1 G2. Briefly: APOL1 G2 HEK293 cell rescue assay (reversal of cell death caused by overexpression of APOL1). Format: cell-based. The note with it: Homo sapiens, HEK293, HEK293 overexpressing APOL1 G2; geometric mean of at least 2 assay runs; † = single assay run. The procedure, abridged:
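EC50 is the half-maximal effective concentration for reversing cell death driven by APOL1 G2 overexpression in HEK293 cells. Reported as geometric mean of at least 2 runs on separate days, each run averaging duplicate wells per plate; some values from a single run.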

Consider `N#Cc1ccc2c(c1)C1(CCN(CCOc3ccc(S(=O)(=O)C(F)F)cc3)CC1)C(=O)N2` [Compound 113, 1′-[2-(4-difluoromethanesulfonylphenoxy)ethyl]-2-oxo-1,2-dihydrospiro[indole-3,4′-piperidine]-5-carbonitrile], for which, on APOL1 G2, the AC50 is 524 nM. Further, the EC50 in experiment [1] was found to be 83.6 nM.
On to `O=C1CCc2cc(OCCN3CCC4(CC3)C(=O)Nc3ccc(Cl)cc34)ccc2N1[C@H]1C[C@@H](O)C1` [Compound 114, 5-chloro-1′-[2-({2-oxo-1-[(cis)-3-hydroxycyclobutyl]-1,2,3,4-tetrahydroquinolin-6-yl}oxy)ethyl]-1,2-dihydrospiro[indole-3,4′-piperidin]-2-one], for which the AC50 at APOL1 G2 is 529 nM. Moreover, the EC50 in experiment [1] was 46.5 nM.
As to `CN(c1c(F)cc(OCCN2CCC3(CC2)C(=O)Nc2ccc(Cl)cc23)cc1F)S(C)(=O)=O` [Compound 127, N-[4-(2-{5-chloro-2-oxo-1,2-dihydrospiro[indole-3,4′-piperidin]-1′-yl}ethoxy)-2,6-difluorophenyl]-N-methylmethanesulfonamide], the AC50 at APOL1 G2 turned out to be 542 nM. Besides, the EC50 in experiment [1] stood at 20.8 nM.
`CN(c1c(F)cc(OCCN2CCC3(CC2)C(=O)Nc2ccc(C#N)cc23)cc1F)S(C)(=O)=O` [Compound 128, N-[4-(2-{5-cyano-2-oxo-1,2-dihydrospiro[indole-3,4′-piperidin]-1′-yl}ethoxy)-2,6-difluorophenyl]-N-methylmethanesulfonamide]: the half-maximal activity concentration (AC50) at APOL1 G2 worked out at 537 nM. In experiment [1], the concentration giving a half-maximal response (EC50) turned out to be 42.7 nM.
In the same order, the values of `Cc1cc(OCCN2CCC3(CC2)C(=O)Nc2ccc(Cl)cc23)cc(C)c1S(C)(=O)=O` [Compound 129, 5-chloro-1′-[2-(4-methanesulfonyl-3,5-dimethylphenoxy)ethyl]-1,2-dihydrospiro[indole-3,4′-piperidin]-2-one] are 352 nM and 24.6 nM.
As to `Cn1c(=O)oc2cc(OCCN3CCC4(CC3)C(=O)Nc3ccc(Cl)cc34)ccc21` [Compound 131, 5-chloro-1′-{2-[(3-methyl-2-oxo-2,3-dihydro-1,3-benzoxazol-6-yl)oxy]ethyl}-1,2-dihydrospiro[indole-3,4′-piperidin]-2-one], the half-maximal activity concentration (AC50) at APOL1 G2 is 464 nM. Moreover, the EC50 in experiment [1] turned out to be 68 nM.
On the same counts, the results for `Cn1c(=O)oc2cc(OCCN3CCC4(CC3)C(=O)Nc3ccc(C#N)cc34)ccc21` [Compound 132, 1′-{2-[(3-methyl-2-oxo-2,3-dihydro-1,3-benzoxazol-6-yl)oxy]ethyl}-2-oxo-1,2-dihydrospiro[indole-3,4′-piperidine]-5-carbonitrile] are 492 nM and 153 nM.
In the same order, the values of `CS(=O)(=O)C1(c2c(F)cc(OCCN3CCC4(CC3)C(=O)Nc3ccc(Cl)cc34)cc2F)COC1` [Compound 136, 5-chloro-1′-{2-[3,5-difluoro-4-(3-methanesulfonyloxetan-3-yl)phenoxy]ethyl}-1,2-dihydrospiro[indole-3,4′-piperidin]-2-one] are 800 nM and 22.4 nM.
Turning to `CC(c1c(F)cc(OCCN2CCC3(CC2)C(=O)Nc2ccc(C#N)cc23)cc1F)S(C)(=O)=O` (stereo not shown) [Compound 137, 1′-{2-[3,5-difluoro-4-(1-methanesulfonylethyl)phenoxy]ethyl}-2-oxo-1,2-dihydrospiro[indole-3,4′-piperidine]-5-carbonitrile], the AC50 on APOL1 G2 stood at 597 nM. The EC50 in experiment [1] stood at 114 nM.
Turning to `Cc1cc(OCCN2CCC3(CC2)C(=O)Nc2ccc(C#N)cc23)cnc1S(C)(=O)=O` [Compound 140, 1′-{2-[(6-methanesulfonyl-5-methylpyridin-3-yl)oxy]ethyl}-2-oxo-1,2-dihydrospiro[indole-3,4′-piperidine]-5-carbonitrile], the concentration at half-maximal activity (AC50) on APOL1 G2 is 807 nM. Moreover, the half-maximal effective concentration (EC50) in experiment [1] stood at 172 nM.
Take `CC(C)N1C(=O)Cc2cc(OCCN3CCC4(CC3)C(=O)Nc3ccc(C#N)cc34)ccc21` [Compound 144, 2-oxo-1′-(2-{[2-oxo-1-(propan-2-yl)-2,3-dihydro-1H-indol-5-yl]oxy}ethyl)-1,2-dihydrospiro[indole-3,4′-piperidine]-5-carbonitrile]: the AC50 at APOL1 G2 worked out at 708 nM. For the same molecule, the EC50 in experiment [1] turned out to be 81 nM.
On the same counts, the results for `CC(C)N1C(=O)Cc2cc(OCCN3CCC4(CC3)C(=O)Nc3ccc(Cl)cc34)ccc21` [Compound 145, 5-chloro-1′-(2-{[2-oxo-1-(propan-2-yl)-2,3-dihydro-1H-indol-5-yl]oxy}ethyl)-1,2-dihydrospiro[indole-3,4′-piperidin]-2-one] are 465 nM and 50.4 nM.
Consider `CN1Cc2cc(OCCN3CCC4(CC3)C(=O)Nc3ccc(Cl)cc34)ccc2C1=O` [Compound 146, 5-chloro-1′-{2-[(2-methyl-1-oxo-2,3-dihydro-1H-isoindol-5-yl)oxy]ethyl}-1,2-dihydrospiro[indole-3,4′-piperidin]-2-one], for which the half-maximal activity concentration (AC50) at APOL1 G2 turned out to be 279 nM. In experiment [1], the EC50 is 121 nM.
Take `CN=S(C)(=O)c1ccc(OCCN2CCC3(CC2)C(=O)Nc2ccc(Cl)cc23)cc1` (stereo not shown) [Compound 147, 5-chloro-1′-(2-{4-[methyl(methylimino)oxo-λ^6-sulfanyl]phenoxy}ethyl)-1,2-dihydrospiro[indole-3,4′-piperidin]-2-one]: the half-maximal activity concentration (AC50) on APOL1 G2 is 492 nM. Also, the concentration for a half-maximal effect (EC50) in experiment [1] worked out at 63.1 nM.
Turning to `CN=S(C)(=O)c1ccc(OCCN2CCC3(CC2)C(=O)Nc2ccc(C#N)cc23)cc1` (stereo not shown) [Compound 150, 1′-(2-{4-[methyl(methylimino)oxo-λ^6-sulfanyl]phenoxy}ethyl)-2-oxo-1,2-dihydrospiro[indole-3,4′-piperidine]-5-carbonitrile], the concentration at half-maximal activity (AC50) on APOL1 G2 was determined as 629 nM. The EC50 in experiment [1] amounted to 228 nM.
`CN1CCc2cc(OCCN3CCC4(CC3)C(=O)Nc3ccc(Cl)cc34)ccc2S1(=O)=O` [Compound 153, 6-(2-{5-chloro-2-oxo-1,2-dihydrospiro[indole-3,4′-piperidin]-1′-yl}ethoxy)-2-methyl-3,4-dihydro-2H-1λ^6,2-benzothiazine-1,1-dione]: the AC50 at APOL1 G2 is 826 nM. For the same molecule, the 50% effective concentration (EC50) in experiment [1] stood at 22.1 nM.
Consider `CN1CCc2cc(OCCN3CCC4(CC3)C(=O)Nc3ccc(C#N)cc34)ccc2S1(=O)=O` [Compound 154, 1′-{2-[(2-methyl-1,1-dioxo-3,4-dihydro-2H-1λ^6,2-benzothiazin-6-yl)oxy]ethyl}-2-oxo-1,2-dihydrospiro[indole-3,4′-piperidine]-5-carbonitrile], for which the AC50 on APOL1 G2 was 869 nM. Moreover, in experiment [1], the EC50 is 67.1 nM.
With `CS(=O)(=O)c1ccc(OCCN2CCC3(CC2)C(=O)Nc2ccc(Cl)cc23)cc1Cl` [Compound 155, 5-chloro-1′-[2-(3-chloro-4-methanesulfonylphenoxy)ethyl]-1,2-dihydrospiro[indole-3,4′-piperidin]-2-one], the AC50 at APOL1 G2 is 452 nM. Further, the EC50 in experiment [1] turned out to be 26.2 nM.
As for `CS(=O)(=O)c1ccc(OCCN2CCC3(CC2)C(=O)Nc2ccc(C#N)cc23)cc1Cl` [Compound 156, 1′-[2-(3-chloro-4-methanesulfonylphenoxy)ethyl]-2-oxo-1,2-dihydrospiro[indole-3,4′-piperidine]-5-carbonitrile], at APOL1 G2, the AC50 was found to be 468 nM. Moreover, the EC50 in experiment [1] was determined as 55.9 nM.
`CC(C)(C#N)c1ccc(OCCN2CCC3(CC2)C(=O)Nc2ccc(C#N)cc23)cc1` [Compound 157, 1′-{2-[4-(1-cyano-1-methylethyl)phenoxy]ethyl}-2-oxo-1,2-dihydrospiro[indole-3,4′-piperidine]-5-carbonitrile]: the AC50 at APOL1 G2 amounted to 933 nM. For the same molecule, the EC50 in experiment [1] is 50.4 nM.
